Data: US7879792B2, “Synthetic peptide inhibitors of thrombin and thrombin activation of protease activated receptors 1 and 4” (The Regents of the University of Michigan, priority 2005, dated 2011)
Where a SMILES comes first, the peptide text is derived from it.

Key:
[1] = tested on: γ-thrombin-induced platelet aggregation; assay: γ-thrombin-induced platelet aggregation in human platelet-rich plasma; type: cell-based; conditions: for Concentration of Peptide [mM] That Gives 100% Inhibition: 40 nM human gamma thrombin, human platelet-rich plasma
Method: Fresh whole blood was collected and mixed with 0.013 M sodium citrate and platelet-rich plasma was prepared according to the method of Meloni et al., J. Biol. Chem. 266, 6786 (1991). Platelet-rich plasma with a normalized platelet count between 2-2.5×10^8 platelets/ml was added to a cuvette of an aggregometer (Chronlog Corp., Havertown, Pa.), standardized using the protocol of Meloni et al., supra. Peptides to be examined were added to the cuvette and the mixture stabilized for a few moments. Once the baseline was stabilized, γ-thrombin (10-70 nM) (Haematologic Technologies, Essex Junction, Vt.) was added to determine the minimal concentration of the agonist necessary to achieve full platelet aggregation. All investigations with peptides were performed using threshold concentrations of γ-thrombin. Aggregation was allowed to proceed for 5 minutes before stopping.
Table III is a tabulation of the library of peptides prepared and their influence on γ-thrombin-induced platelet aggregation in platelet-rich plasma. […] The numbers in the column represent the minimal concentration (mM) of the peptide that blocked 100% γ-thrombin-induced platelet aggregation of platelets in human platelet-rich plasma.
Human platelet samples were stimulated with 40 nM human gamma thrombin in each experiment.

[2] = molecular target: T1, recombinant extracellular domain of human PAR1 (rPAR1EC) (Homo sapiens, UniProt P25116); assay: inhibition of RPPGFK-biotin binding to rPAR1EC; conditions: 15 μM RPPGFK-biotin
T1 construct: A portion of the extracellular domain of human PAR1 (Ala^26-Ser^99) (rPAR1EC) was expressed in Escherichia coli; KSI fusion protein (cleaved yes); His tag (cleaved yes); made in house; host or cells: E. coli BL21(DE3), pET31b
T1 sequence (P25116 26-99): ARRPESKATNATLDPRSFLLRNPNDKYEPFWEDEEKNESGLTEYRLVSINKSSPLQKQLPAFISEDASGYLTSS

[3] = molecular target: T2, recombinant extracellular domain of human PAR4 (rPAR4EC) (Homo sapiens, UniProt Q96RI0); assay: inhibition of RPPGFK-biotin binding to rPAR4EC; conditions: 15 μM RPPGFK-biotin
T2 construct: starting with Gly^18, the first amino acid after the signal peptide is removed, and finishing with Arg^78; KSI fusion protein (N, cleaved yes); His-tag (N, cleaved yes); made in house; host or cells: E. coli 'BLD (DE3)' cells, pET31b; cDNA from HEL cell mRNA
T2 sequence (Q96RI0 18-78): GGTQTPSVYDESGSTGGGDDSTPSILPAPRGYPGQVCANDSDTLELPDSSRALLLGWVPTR
Method: Investigations were performed to determine if the compounds in the present invention interact with the exodomain of human PAR4. The extracellular fragment of human PAR4 has been expressed in bacteria. Human erythroleukemia (HEL) cells were used as a source for PAR4 mRNA. The level of PAR4 mRNA was substantially higher in HEL cells than washed human platelets. […] These primers give a 204 basepair fragment which codes for a 61 amino acid hPAR4 protein starting with Gly^18, the first amino acid after the signal peptide is removed, and finishing with Arg^78, the last amino acid of the extracellular fragment (Xu et al. Proc. Natl. Acad. Sci. 95, 6642-6646 (1998)). The pET31b-PAR4 vector after cloning was used to transform BLD (DE3) cells to express the recombinant protein. After IPTG stimulation, the recombinant protein was isolated from the bacterial lysate on a nickel affinity column followed by treatment with CNBr to remove the KSI fusion protein and His-tag on its amino terminal end. The isolated recombinant extracellular domain of PAR4 (rPAREC) is about 9 kDa on 16.5% Tris-Tricine SDS-PAGE. The recombinant protein is recognized as being human PAR4 by detection with an antibody prepared from a peptide (S^41[…]^52) (SEQ ID NO:9) from human PAR4EC. Recombinant PAR4EC was linked to microtiter plate cuvette wells. Goat polyclonal antibody to human PAR1, PAR3, or PAR4 was incubated with the coated microtiter plate cuvette wells and antibody binding was detected. Only antibody to PAR4 detected rPAR4EC linked to the microtiter plate wells. […] These studies indicate that peptides of the present invention also physically interact with human PAR4.

SMILES	Concentration of Peptide [mM] That Gives 100% Inhibition [1] [mM]	RPPGFK-biotin displaced from rPAR1 exodomain ([2]; 1000 μM (1 mM) peptide) [%]	RPPGFK-biotin displaced from rPAR4 exodomain ([3]; 1 μM peptide (so in the source)) [%]	concentration that abolished γ-thrombin-induced platelet aggregation ([1]; 40 nM γ-thrombin)	γ-thrombin-induced platelet aggregation ([1]; 8 μM peptide, 40 nM γ-thrombin)	RPPGFK-biotin displaced from rPAR1 exodomain ([2]; 30 μM peptide) [%]	RPPGFK-biotin displaced from rPAR1 exodomain ([2]; 300 μM peptide) [%]	RPPGFK-biotin displaced from rPAR4 exodomain ([3]; 30 μM peptide) [%]	RPPGFK-biotin displaced from rPAR4 exodomain ([3]; 300 μM peptide) [%]	RPPGFK-biotin displaced from rPAR4 exodomain ([3]; 1000 μM peptide) [%]
N=C(N)NCCC[C@@H](N)C(=O)N1[C@H](C(=O)N2CCC[C@H]2C(=O)NCC(=O)N[C@@H](Cc2ccccc2)C(N)=O)C[C@@H]2CCCC[C@@H]21 [rOicPGF, D-Arg-Oic-Pro-Gly-Phe, reference compound] (HELM PEPTIDE1{[dR].[O=C([C@@H]1C[C@@H]2CCCC[C@@H]2N1[*:1])[*:2]].P.G.F.[am]}$$$$V2.0)	0.142	50	50	–	–	–	–	–	–	–
Cc1ccc(C[C@H](NC(=O)[C@@H](C)NC(=O)[C@@H]2CCCN2C(=O)[C@@H]2C[C@@H]3CCCC[C@@H]3N2C(=O)[C@H](N)CCCNC(=N)N)C(N)=O)cc1 [rOicPaF(p-Me), D-Arg-Oic-Pro-D-Ala-Phe(p-Me)] (HELM PEPTIDE1{[dR].[O=C([C@@H]1C[C@@H]2CCCC[C@@H]2N1[*:1])[*:2]].P.[dA].[Cc1ccc(C[C@H](N[*:1])C(=O)[*:2])cc1].[am]}$$$$V2.0)	0.016	69	–	greater than or equal to 16 μM	returned to normal	23	52	19	49	63
